Experimental data: US20140100138A1, “MECHANICAL STRESS RESPONSE ANALYSIS OF CELLS AND TISSUES” (The Regents of The University of California, priority 2012, published 2014)

Tests used:
[1] = 2-APB 10 μM, 30 μM or 100 μM; cited from earlier work
HUVECs [2] = assay: 96-well plate screen of microtsunami-generated Ca2+ signaling, percentage of cells signaling 100-150 μm from μCB center; assay type: cell-based, human; conditions: 96-well screen; for effect on microtsunami-induced Ca2+ signaling in Ca2+ containing media: HHBSS+ with 2 g/L D-glucose, FIG. 9D columns 8-10; for effect on microtsunami-induced Ca2+ signaling in Ca2+ free media: HHBSS- with 3 mM EGTA, 2-APB 10-100 μM, PP2 10 μM, Verapamil 50 nM, FIG. 9D columns 1-5
Method: 96 well plates (Invitro-Scientific) were coated with fibronectin and P4 HUVECs were plated in each well. […] DMSO was also added as a control corresponding to the highest amount added from solution of the drugs, 0.3%. The first seven columns contained the previously used HHBSS- with 3 mM EGTA and the last five columns contained HHBSS+ supplemented with 2 g/L D-glucose.
The experiments were performed in a 96-well plate where twelve conditions, each with eight replicates, were tested for their potential effect on μTsunami generated Ca^2+ signaling.

HUVECs [3] = assay: Cell lysate / ATP control experiments for Ca2+ signaling with and without microtsunami exposure; assay type: cell-based, human
Method: HUVECs grown in a tissue culture flask at full confluency were resuspended in standard HBSS- at a concentration of 1.5×10^7 cells/mL. Cell lysate solution was prepared by subjecting this solution to repeated freeze-thaw cycles at −80° C. and then sonicated on ice for 30 s.
Exposure to cell lysate alone was confirmed as not responsible for the observed Ca^2+ dynamics. Cells were dosed with a solution of cell lysate immediately following microtsunami exposure. In addition, cells were exposed to cell lysate alone. As positive controls, the Ca^2+ signaling response produced by ATP was measured with and without microtsunami exposure. As a negative control, Ca^2+ signaling without cell lysate, ATP, or microtsunami exposure was measured.
Probability of Ca2+ signaling produced by microtsunami exposure is plotted as a function of distance from the site of laser microbeam irradiation. Two control experiments were conducted to test whether the observed Ca^2+ was due to cellular exposure to cell lysate produced by the microtsunami. In the first, 150 μL of cell lysate was administered following a Ca^2+ signaling event generated by microtsunami exposure. […] Both experiments elicited an average signaling probability of <1%. […] The reduced ATP signaling probability following microtsunami exposure was due to cell lysis/necrosis produced by the microtsunami.

For `NCCOB(c1ccccc1)c1ccccc1` [2-APB, 2-Aminoethoxydiphenylborate], the “inhibition of Ca2+ release following stimulation using a bolus of ATP” value [1] is given as “dose-dependent inhibition of Ca^2+ release”, the “effect on microtsunami-induced Ca2+ signaling in Ca2+ containing media” value (HUVECs [2]) is given as “suppression of signaling” and the “effect on microtsunami-induced Ca2+ signaling in Ca2+ free media” value (HUVECs [2]) is given as “dose-dependent inhibitory effect”.
For `Nc1ncnc2c1ncn2[C@@H]1O[C@H](COP(=O)(O)OP(=O)(O)OP(=O)(O)O)[C@@H](O)[C@H]1O` [ATP], the “average Ca2+ signaling probability, substance given following microtsunami exposure” value (HUVECs [3]; administered after microtsunami, ATP 50 μM, cell lysate 150 μL) was 60%, the “average Ca2+ signaling probability, substance given without microtsunami exposure” value (HUVECs [3]; no microtsunami, ATP 50 μM) was greater than 90% and the “Ca2+ signaling response (in words)” value (HUVECs [3]; with and without microtsunami exposure) was “strong Ca^2+ signaling response”.
In the case of `CC(C)(C)n1nc(-c2ccc(Cl)cc2)c2c(N)ncnc21` [PP2], the “effect on microtsunami-induced Ca2+ signaling in Ca2+ containing media” value (HUVECs [2]) is reported as “significant microtsunami-induced mechanosignaling was observed” and the “effect on microtsunami-induced Ca2+ signaling in Ca2+ free media” value (HUVECs [2]) is reported as “neither PP2 nor Verapamil (FIG. 9D, columns 4, 5) affected Ca^2+ signaling”.
